Assay results: patent US10273222B2 (CELGENE QUANTICEL RESEARCH, INC., priority 2013, dated 2019)

Tests used:
[1] = target: JMJD2C (Homo sapiens (Human), UniProt Q9H3R0); assay: JMJD2C in vitro enzyme inhibition assay (TR-FRET); type: biochemical
Procedure: This assay determines the ability of a test compound to inhibit Jarid1A, Jarid1B, JMJD2C, and JMJD2A demethylase activity. […] Baculovirus expressed JMJD2C (GenBank Accession #BC143571, AA 2-372) was purchased from BPS Bioscience (Cat#50105).
The ability of test compounds to inhibit the activity of JMJD2C was determined in 384-well plate format under the following reaction conditions: 0.3 nM JMJD2C, 300 nM H3K9me3-biotin labeled peptide (Anaspec cat #64360), 2 μM alpha-ketoglutaric acid in assay buffer of 50 mM HEPES, pH7.3, 0.005% Brij35, 0.5 mM TCEP, 0.2 mg/ml BSA, 50 μM sodium L-ascorbate, and 2 μM ammonium iron(II) sulfate. Reaction product was determined quantitatively by TR-FRET after the addition of detection reagent Phycolink Streptavidin-allophycocyanin (Prozyme) and Europium-anti-di-methylated histone H3 lysine 9 (H3K9me2) antibody (PerkinElmer) in the presence of 5 mM EDTA in LANCE detection buffer (PerkinElmer) at a final concentration of 50 nM and 1 nM, respectively.
The assay reaction was initiated by the following: 2 μl of the mixture of 900 nM H3K9me3-biotin labeled peptide and 6 μM alpha-ketoglutaric acid with 2 μl of 11-point serial diluted inhibitor in 3% DMSO were added to each well of the plate, followed by the addition of 2 μl of 0.9 nM JMJD2C to initiate the reaction. The reaction mixture was incubated at room temperature for 30 minutes, and terminated by the addition of 6 μl of 5 mM EDTA in LANCE detection buffer containing 100 nM Phycolink Streptavidin-allophycocyanin and 2 nM Europium-anti-H3K9me2 antibody. Plates were read by EnVisionMultilabel Reader in TR-FRET mode (excitation at 320 nm, emission at 615 nm and 665 nm) after 1 hour incubation at room temperature. A ratio was calculated (665/615) for each well and fitted to determine inhibition constant (IC50).

[2] = target: FBXL10 (Homo sapiens (Human), UniProt Q8NHM5); assay: FBXL10 in vitro enzyme inhibition assay (AlphaScreen); type: biochemical
Procedure: Reaction product was determined quantitatively by AlphaScreen detection after the addition of detection reagents anti-H3K36me1 antibody, AlphaScreen® Streptavidin-coated Donor beads, and AlphaScreen® Protein A Acceptor beads in 50 mM HEPES, pH7.3, 10 mM NaCl, 0.005% Brij35, 5 mM EDTA, 2 mg/ml BSA to final 10 μg/ml beads.
Plates were incubated at room temperature for 40 minutes, followed by addition of 3 μl of 50 μg/ml AlphaScreen® Streptavidin-coated Donor beads and AlphaScreen® Protein A Acceptor beads in 50 mM HEPES, pH7.3, 10 mM NaCl, 0.005% Brij35, 5 mM EDTA, 2 mg/ml BSA. Plates were read by EnVisionMultilabel Reader in AlphaScreen mode after a minimum of 2 hour or up to overnight incubation at room temperature. The AlphaScreen signal for each well was used to determine inhibition constant (IC50).

FBXL10, sequence (Q8NHM5 1-650): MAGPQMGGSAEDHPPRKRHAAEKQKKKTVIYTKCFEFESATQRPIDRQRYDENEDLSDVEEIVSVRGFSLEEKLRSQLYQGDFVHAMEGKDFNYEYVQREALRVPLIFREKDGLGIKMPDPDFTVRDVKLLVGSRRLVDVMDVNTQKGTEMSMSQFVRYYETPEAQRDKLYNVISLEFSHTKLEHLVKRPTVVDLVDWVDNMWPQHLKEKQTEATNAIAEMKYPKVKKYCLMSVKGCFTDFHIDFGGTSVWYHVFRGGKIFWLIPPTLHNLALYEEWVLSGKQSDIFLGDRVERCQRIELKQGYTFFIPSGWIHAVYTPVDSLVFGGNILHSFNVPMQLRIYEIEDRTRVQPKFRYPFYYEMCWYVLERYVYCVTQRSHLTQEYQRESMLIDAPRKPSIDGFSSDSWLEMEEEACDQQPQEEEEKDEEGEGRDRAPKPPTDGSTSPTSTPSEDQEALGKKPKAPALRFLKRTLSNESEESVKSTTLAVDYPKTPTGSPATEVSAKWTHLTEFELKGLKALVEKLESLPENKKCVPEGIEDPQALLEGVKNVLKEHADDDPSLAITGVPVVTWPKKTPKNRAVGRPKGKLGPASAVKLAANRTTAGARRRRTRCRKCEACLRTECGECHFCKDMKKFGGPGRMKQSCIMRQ
JMJD2C, sequence (Q9H3R0 2-372): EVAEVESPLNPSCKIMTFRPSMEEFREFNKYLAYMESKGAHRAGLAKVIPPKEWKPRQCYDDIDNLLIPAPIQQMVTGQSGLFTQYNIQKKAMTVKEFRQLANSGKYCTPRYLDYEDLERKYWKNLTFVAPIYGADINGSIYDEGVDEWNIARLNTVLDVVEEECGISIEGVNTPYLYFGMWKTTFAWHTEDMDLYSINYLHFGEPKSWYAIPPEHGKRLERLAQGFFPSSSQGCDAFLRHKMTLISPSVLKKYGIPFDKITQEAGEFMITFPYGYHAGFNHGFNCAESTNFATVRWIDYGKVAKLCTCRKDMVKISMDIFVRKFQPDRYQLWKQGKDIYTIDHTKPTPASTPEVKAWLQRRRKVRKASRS

IC50 [1]	IC50 [2]	Structure (SMILES)
1000 to 10000 nM	≤ 100 nM	c1ccc2c(c1)CCC(Cn1cnc(-c3cc(-c4nn[nH]n4)ccn3)c1)C2 (stereo not drawn) [Example 146, 2-[1-(1,2,3,4-tetrahydronaphthalen-2-ylmethyl)imidazol-4-yl]-4-(2H-tetrazol-5-yl)pyridine]
1000 to 10000 nM	≤ 100 nM	Cn1cnc(-c2cc(C(=O)O)ccn2)c1-c1c(F)cccc1OCC1CC1 [Example 122, 2-[5-[2-(cyclopropylmethoxy)-6-fluorophenyl]-1-methylimidazol-4-yl]pyridine-4-carboxylic acid]
1000 to 10000 nM	≤ 100 nM	Fc1ccc(-c2c(-c3cc(-c4nn[nH]n4)ccn3)ncn2Cc2ccccc2Cl)cc1 [Example 137, 2-[1-[(2-chlorophenyl)methyl]-5-(4-fluorophenyl)imidazol-4-yl]-4-(2H-tetrazol-5-yl)pyridine]
1000 to 10000 nM	≤ 100 nM	Cn1cnc(-c2cc(-c3nn[nH]n3)ccn2)c1-c1ccc(F)cc1OCc1ccccc1 [Example 148, 2-[5-(4-fluoro-2-phenylmethoxyphenyl)-1-methylimidazol-4-yl]-4-(2H-tetrazol-5-yl)pyridine]
1000 to 10000 nM	1000 to 10000 nM	CC(=O)OCn1nnc(-c2ccnc(-c3ncn(Cc4ccccc4Cl)c3-c3ccc(F)cc3)c2)n1 [Example 138, [5-[2-[1-[(2-chlorophenyl)methyl]-5-(4-fluorophenyl)imidazol-4-yl]pyridin-4-yl]tetrazol-2-yl]methyl acetate]
1000 to 10000 nM	100 to 1000 nM	Cc1ccc(OCC2CC2)c(-c2c(-c3cc(C(=O)O)ccn3)ncn2C)c1 [Example 123, 2-[5-[2-(cyclopropylmethoxy)-5-methylphenyl]-1-methylimidazol-4-yl]pyridine-4-carboxylic acid]
1000 to 10000 nM	1000 to 10000 nM	CC(C)(C)C(=O)OCn1nnc(-c2ccnc(-c3ncn(Cc4ccccc4Cl)c3-c3ccc(F)cc3)c2)n1 [Example 139, [5-[2-[1-[(2-chlorophenyl)methyl]-5-(4-fluorophenyl)imidazol-4-yl]pyridin-4-yl]tetrazol-2-yl]methyl 2,2-dimethylpropanoate]
100 to 1000 nM	≤ 100 nM	O=C(O)c1ccnc(-c2ncn(CC3CC3)c2-c2ccc(F)cc2)c1 [Example 125, 2-[1-(cyclopropylmethyl)-5-(4-fluorophenyl)imidazol-4-yl]pyridine-4-carboxylic acid]
1000 to 10000 nM	≤ 100 nM	Clc1ccc(Cn2cnc(-c3cc(-c4nn[nH]n4)ccn3)c2)cc1 [Example 131, 2-[1-[(4-chlorophenyl)methyl]imidazol-4-yl]-4-(2H-tetrazol-5-yl)pyridine]
1000 to 10000 nM	≤ 100 nM	CC(c1ccccc1Cl)n1cnc(-c2cc(-c3nn[nH]n3)ccn2)c1 (stereo not drawn) [Example 157, 2-[1-[1-(2-chlorophenyl)ethyl]imidazol-4-yl]-4-(2H-tetrazol-5-yl)pyridine]
1000 to 10000 nM	≤ 100 nM	Clc1cccc(Cn2cnc(-c3cc(-c4nn[nH]n4)ccn3)c2)c1 [Example 130, 2-[1-[(3-chlorophenyl)methyl]imidazol-4-yl]-4-(2H-tetrazol-5-yl)pyridine]
1000 to 10000 nM	≤ 100 nM	O=C(O)c1ccnc(-c2ncn(Cc3ccccc3Cl)c2-c2ccc(F)cc2)c1 [Example 127, 2-[1-[(2-chlorophenyl)methyl]-5-(4-fluorophenyl)imidazol-4-yl]pyridine-4-carboxylic acid]
1000 to 10000 nM	100 to 1000 nM	CC(=O)OCn1nnc(-c2ccnc(-c3cn(Cc4ccccc4Cl)cn3)c2)n1 [Example 167, (5-(2-(1-(2-chlorobenzyl)-1H-imidazol-4-yl)pyridin-4-yl)-2H-tetrazol-2-yl)methyl acetate]
1000 to 10000 nM	100 to 1000 nM	Cn1cnc(-c2cc(-c3nn[nH]n3)ccn2)c1-c1ccc(F)c(OCC(F)(F)F)c1 [Example 159, 2-[5-[4-fluoro-3-(2,2,2-trifluoroethoxy)phenyl]-1-methylimidazol-4-yl]-4-(2H-tetrazol-5-yl)pyridine]
1000 to 10000 nM	≤ 100 nM	Cn1cnc(-c2cc(-c3nn[nH]n3)ccn2)c1-c1ccc(F)c(OCc2ccccc2)c1 [Example 160, 2-[5-(4-fluoro-3-phenylmethoxyphenyl)-1-methylimidazol-4-yl]-4-(2H-tetrazol-5-yl)pyridine]
100 to 1000 nM	≤ 100 nM	O=C(O)c1ccnc(-c2cn(Cc3cccc(C(F)(F)F)c3)cn2)c1 [Example 117, 2-[1-[[3-(trifluoromethyl)phenyl]methyl]imidazol-4-yl]pyridine-4-carboxylic acid]
1000 to 10000 nM	100 to 1000 nM	Cn1cnc(-c2cc(-c3nn[nH]n3)ccn2)c1-c1ccc(F)c(C(=O)Nc2ccccc2)c1 [Example 163, 2-fluoro-5-[3-methyl-5-[4-(2H-tetrazol-5-yl)pyridin-2-yl]imidazol-4-yl]-N-phenylbenzamide]
100 to 1000 nM	≤ 100 nM	O=C(O)c1ccnc(-c2ncn(CCc3ccccc3Cl)c2-c2ccc(F)cc2)c1 [Example 124, 2-[1-[2-(2-chlorophenyl)ethyl]-5-(4-fluorophenyl)imidazol-4-yl]pyridine-4-carboxylic acid]
1000 to 10000 nM	100 to 1000 nM	CC(C)COc1ccccc1Cn1cnc(-c2cc(-c3nn[nH]n3)ccn2)c1 [Example 153, 2-[1-[[2-(2-methylpropoxy)phenyl]methyl]imidazol-4-yl]-4-(2H-tetrazol-5-yl)pyridine]
1000 to 10000 nM	100 to 1000 nM	Clc1ccc(-c2c(-c3cc(-c4nn[nH]n4)ccn3)ncn2CCc2ccccc2Cl)cc1 [Example 133, 2-[5-(4-chlorophenyl)-1-[2-(2-chlorophenyl)ethyl]imidazol-4-yl]-4-(2H-tetrazol-5-yl)pyridine]
1000 to 10000 nM	≤ 100 nM	Clc1ccc(-c2c(-c3cc(-c4nn[nH]n4)ccn3)ncn2CC2CC2)cc1 [Example 136, 2-[5-(4-chlorophenyl)-1-(cyclopropylmethyl)imidazol-4-yl]-4-(2H-tetrazol-5-yl)pyridine]
1000 to 10000 nM	≤ 100 nM	Cn1cnc(-c2cc(-c3nn[nH]n3)ccn2)c1-c1ccc(F)c2ccccc12 [Example 164, 2-[5-(4-fluoronaphthalen-1-yl)-1-methylimidazol-4-yl]-4-(2H-tetrazol-5-yl)pyridine]
1000 to 10000 nM	≤ 100 nM	Clc1cccc(Cl)c1Cn1cnc(-c2cc(-c3nn[nH]n3)ccn2)c1 [Example 151, 2-[1-[(2,6-dichlorophenyl)methyl]imidazol-4-yl]-4-(2H-tetrazol-5-yl)pyridine]
1000 to 10000 nM	≤ 100 nM	FC(F)(F)COc1ccccc1Cn1cnc(-c2cc(-c3nn[nH]n3)ccn2)c1 [Example 152, 4-(2H-tetrazol-5-yl)-2-[1-[[2-(2,2,2-trifluoroethoxy)phenyl]methyl]imidazol-4-yl]pyridine]
	≤ 100 nM	Cn1cnc(-c2cc(-c3nn[nH]n3)ccn2)c1-c1ccc(Cl)c(OCc2ccccc2)c1 [Example 161, 2-[5-(4-chloro-3-phenylmethoxyphenyl)-1-methylimidazol-4-yl]-4-(2H-tetrazol-5-yl)pyridi]

Structure (SMILES)	IC50 [1]	IC50 [2]
CCCCOc1cc(F)ccc1-c1c(-c2cc(-c3nn[nH]n3)ccn2)ncn1C [Example 149, 2-[5-(2-butoxy-4-fluorophenyl)-1-methylimidazol-4-yl]-4-(2H-tetrazol-5-yl)pyridine]	1000 to 10000 nM	≤ 100 nM
